Test systems include EKVX NSCLC; K-562 leukemia; SF-539 CNS; LOX IMVI melanoma; A498 renal; HT29 colon; SK-MEL-5 melanoma; HCT-15 colon; OVCAR-4 ovarian; SR leukemia.
Holding throughout (test): NCI tumour cell line growth inhibition, 48 h

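Exposure lasted 48 hours, with cells grown in 96-well plates and compounds tested at five concentrations. GI50 marks 50% less growth. The concentration for full growth arrest is given as TGI.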 Where a SMILES comes first, the peptide text is derived from it. The star is where a group is joined. Palmitoyl = CCCCCCCCCCCCCCCC(=O)*

Consider `Cn1ncc2c(NCc3ccccc3)ncnc21`, for which the TGI in the assay with EKVX NSCLC, in the assay on K-562 leukemia, with SF-539 CNS, in the assay with LOX IMVI melanoma, in the assay with A498 renal and in the assay with HT29 colon was over 100 µM each time. The TGI with SK-MEL-5 melanoma, in the assay on HCT-15 colon, with OVCAR-4 ovarian and in the assay on SR leukemia was over 100 µM each time.
Consider `COc1ccc(N2C(=O)C3c4[nH]c5cc(C)ccc5c4C4CCC(C(C)(C)C)CC4C3C2=O)cc1` (centres undefined), for which the TGI in the assay on EKVX NSCLC, in the assay on K-562 leukemia, in the assay with SF-539 CNS, in the assay with LOX IMVI melanoma, in the assay with A498 renal and with HT29 colon was over 10 µM throughout. Also, the TGI in the assay on SK-MEL-5 melanoma, in the assay with HCT-15 colon, in the assay with OVCAR-4 ovarian and with SR leukemia was over 10 µM in each case.
For `COc1cc2c(cc1OCCCN1C(=O)c3cccc4cccc(c34)C1=O)N=C[C@@H]1CCCN1C2=O`, the TGI is over 100 µM in the assay with EKVX NSCLC; over 80.5 µM with K-562 leukemia; over 100 µM with SF-539 CNS; over 100 µM in the assay on LOX IMVI melanoma; over 100 µM with A498 renal; over 100 µM with HT29 colon. Also, the TGI in the assay on SK-MEL-5 melanoma was over 63.6 µM; in the assay with HCT-15 colon, over 77.9 µM; in the assay on OVCAR-4 ovarian, over 81.4 µM; in the assay on SR leukemia it was 25.5 µM.
Take `OC(C#CCN1CCCC1)(c1ccccc1)c1ccccc1Cl` (centres undefined): the TGI in the assay on EKVX NSCLC was over 100 µM; with K-562 leukemia, over 100 µM; in the assay on SF-539 CNS it was 52.4 µM; in the assay with LOX IMVI melanoma it was 33.4 µM; with A498 renal, 66.8 µM; in the assay with HT29 colon it was 30.1 µM. The TGI in the assay on SK-MEL-5 melanoma is 31.5 µM; in the assay with HCT-15 colon it was over 100 µM; with OVCAR-4 ovarian, 80.7 µM; in the assay on SR leukemia, over 100 µM.
Take `Cc1ccc2c(c1)c1ccc3c(c1n2C)C(=O)C=CC3=O`: the TGI with EKVX NSCLC was over 7.07 µM; in the assay on K-562 leukemia it was 2.31 µM; in the assay with SF-539 CNS, 4.93 µM; in the assay with LOX IMVI melanoma it was over 10 µM; with A498 renal it was over 8.82 µM; in the assay with HT29 colon, over 10 µM. The TGI is over 10 µM in the assay on SK-MEL-5 melanoma, 3.92 µM in the assay on HCT-15 colon, over 5.56 µM in the assay with OVCAR-4 ovarian and 0.871 µM with SR leukemia.
On to `CNc1[nH]c(=S)nc2sc3c(c12)CCCC3`, for which the TGI with EKVX NSCLC, with K-562 leukemia, with LOX IMVI melanoma, in the assay with A498 renal, with HT29 colon and in the assay on SK-MEL-5 melanoma was over 75 µM each time. The TGI in the assay with HCT-15 colon, in the assay with OVCAR-4 ovarian and with SR leukemia was over 75 µM each time.
In the case of `O=C(c1ccccc1)c1ccc2c(c1)NC(=O)c1ccccc1SSc1ccccc1C(=O)N2`, the TGI in the assay with EKVX NSCLC, in the assay with K-562 leukemia, with SF-539 CNS, in the assay on LOX IMVI melanoma, with A498 renal and with HT29 colon was over 100 µM in each case. In addition, the TGI in the assay with SK-MEL-5 melanoma, with HCT-15 colon, in the assay on OVCAR-4 ovarian and in the assay with SR leukemia was over 100 µM throughout.
As for `CCCCCCCCCCCCCCCC(=O)N1CCCC1C(=O)NCC(=O)NC(Cc1ccccc1)C(=O)N1CCCC1C(=O)NC(CO)C(=O)NC(Cc1ccc(O)cc1)C(=O)NC(CCCCN)C(=O)NC(CC(C)C)C(=O)NC(CCCN=C(N)N)C(=O)N1CCCC1C(=O)NCC(N)=O` (centres undefined) (Palmitoyl-PGFPSYKLRPG-NH2; configuration not given here), the GI50 was 15.7 µM in the assay with EKVX NSCLC; 14.3 µM in the assay with K-562 leukemia; 20.5 µM in the assay on SF-539 CNS; 32.8 µM in the assay with A498 renal; 15.8 µM in the assay on HT29 colon; 28.7 µM with SK-MEL-5 melanoma. For the same compound, the values for the GI50 with OVCAR-4 ovarian and in the assay on SR leukemia were 30.1 µM and 16.5 µM, respectively. Further, the TGI is 44.5 µM in the assay on EKVX NSCLC; 38.5 µM with K-562 leukemia; 47.9 µM in the assay on SF-539 CNS; 93.2 µM in the assay with A498 renal; 29.3 µM in the assay with HT29 colon; over 100 µM in the assay with SK-MEL-5 melanoma. For the same compound, the TGI with OVCAR-4 ovarian is 81.8 µM; with SR leukemia it was 44.9 µM.
For the compound `O=[N+]([O-])c1cc2oc(CSc3ccccc3)nc2cc1Cl`, the TGI is over 100 µM in the assay on EKVX NSCLC; over 100 µM with K-562 leukemia; over 100 µM in the assay on SF-539 CNS; over 100 µM in the assay with LOX IMVI melanoma; 59.2 µM with A498 renal; over 100 µM in the assay with HT29 colon. The TGI was 33.7 µM in the assay on SK-MEL-5 melanoma, over 100 µM in the assay on HCT-15 colon, over 100 µM in the assay with OVCAR-4 ovarian and over 100 µM in the assay on SR leukemia.
Take `Cc1nc2ccccc2c(-n2cccn2)c1CCn1cccn1`: the TGI in the assay with EKVX NSCLC, in the assay on K-562 leukemia, with SF-539 CNS, in the assay on LOX IMVI melanoma, with A498 renal and in the assay on HT29 colon was over 100 µM in each case. For the same compound, the TGI with SK-MEL-5 melanoma, in the assay with HCT-15 colon, with OVCAR-4 ovarian and in the assay on SR leukemia was over 100 µM in each case.
Consider `Clc1ccc(C=NC23CC4CC(CC(C4)C2)C3)c(Cl)c1`, for which the TGI in the assay with EKVX NSCLC, with K-562 leukemia, in the assay on SF-539 CNS, in the assay on LOX IMVI melanoma, in the assay with A498 renal and in the assay on HT29 colon was over 10 µM in each case. Besides, the TGI with SK-MEL-5 melanoma, in the assay with HCT-15 colon, in the assay with OVCAR-4 ovarian and in the assay on SR leukemia was over 10 µM each time.
Consider `CC(C)N1CCN(c2ccc(OCC3COC(Cn4cncn4)(c4ccc(Cl)cc4Cl)O3)cc2)CC1` (centres undefined), for which the TGI in the assay on EKVX NSCLC turned out to be 30.6 µM; in the assay on K-562 leukemia it was 19.8 µM; in the assay on SF-539 CNS, 27.3 µM; in the assay on LOX IMVI melanoma it was 30.2 µM; in the assay with A498 renal, 27.4 µM; with HT29 colon it was 13.4 µM. The TGI in the assay on SK-MEL-5 melanoma is 4.92 µM; with HCT-15 colon it was 26.5 µM; in the assay with OVCAR-4 ovarian it was 35.6 µM; in the assay on SR leukemia, 12.1 µM.
As for `Cc1cc(OP2(=O)NCc3ncccc3O2)ccc1Cl` (centres undefined), the TGI in the assay with EKVX NSCLC, in the assay with K-562 leukemia, with SF-539 CNS, in the assay with LOX IMVI melanoma, in the assay on A498 renal and in the assay on SK-MEL-5 melanoma was over 100 µM in each case. The TGI with HCT-15 colon, with OVCAR-4 ovarian and in the assay on SR leukemia was over 100 µM throughout.

The values are drawn from PubChem BioAssay (NCI).
